Test results: patent publication US20240409536A1, “COMPOUNDS AND METHODS FOR MODULATING SPLICING” (REMIX THERAPEUTICS INC., priority 2021, published 2024)

Experiments:
HTT mRNA = experiment: Splicing RT-qPCR assay, HTT canonical (CJ) and alternative (AJ) junction mRNA; format: cell-based; settings: Homo sapiens, A673 or K562 cells, 24 hours; for IC50: decrease in canonical junction mRNA; for AC50: increase in alternative junction mRNA
In short: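 Housekeeping-normalized RT-qPCR of canonical and alternative junctions in lysates of A673 or K562 cells exposed 24 h to compound (11 points, 3-fold steps, max 10 uM).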

Target C = experiment: HiBiT protein abundance assay, Target C (K562 HiBiT knock-in cells); format: cell-based, human; settings: 24 hours
Protocol: • Promega Nano-Glo HiBiT Lytic Detection System (cat #N3030) • Corning 384-well TC-treated microplates (cat #3570) • Synthego Engineered Cells Knock-In Clones
Cells were maintained in IMDM with 10% FBS. Before the assay, cells were diluted with […] growth media (IMDM+1% FBS media) and were seeded in a 384-well plate at a density of 10000 cells/well (for each cell line listed in Table 6). Each compound was prepared as a 10-point 3-fold serial dilution in DMSO with the top dose at a final concentration of 10 μM in the well. Unmodified K562 cells were added at the previously specified density with DMSO to serve as an assay baseline and positive control (PC) and DMSO only with the respective modified cell lines was added to the negative control (NC) columns. Final DMSO concentration was kept at or below 0.25%. Treated cell plates were placed in an incubator at 37° C. with 5% CO2 for 24 hours. After 24 hours, 25 μL of Complete HiBit Lytic reagent was added to each well at room temperature (e.g. one plate requiring 10 mL Lytic Buffer, 100 μL LgBiT Protein, 200 μL Lytic Substrate), shaken for 5 minutes at 600 RPM, then left to sit for 10 minutes for signal to stabilize before reading on a Spark Cyto plate reader (Tecan) with a 500 ms measurement time.
To determine compound effects on protein abundance of each target in Table 6, the percent response for each respective cell line was calculated at each compound concentration as follows:
For the normalized response at each concentration, a four-parameter logistical regression was fit to the data and the response was interpolated at the 50% value to determine a concentration for protein abundance at 50% (IC50) the untreated control.

IC50 (HTT mRNA)	IC50 (Target C)	Structure (SMILES)	AC50 (HTT mRNA)
0.1 to 1 µM	0.1 to 1 µM	Cc1cn2cc(NC(=O)c3ccc(N4C[C@@H](C)N[C@@H](C)C4)c4ncc(N(C)C)nc34)cc(F)c2n1 [Compound 283]	0.1 to 1 µM
> 10 µM	> 10 µM	Cc1cn2cc(NC(=O)c3ccc(NC4CCNC4)c4nccnc34)cc(F)c2n1 (stereo not drawn) [Compound 316]	1 to 10 µM
> 10 µM	> 10 µM	COc1nc2c(F)cc(NC(=O)c3ccc(N4C[C@@H](C)N[C@@H](C)C4)c4nccnc34)cc2o1 [Compound 342]	> 10 µM
0.1 to 1 µM	0.1 to 1 µM	CCOc1cnc2c(N3C[C@@H](C)N[C@@H](C)C3)ccc(C(=O)Nc3cc(F)c4nc(C)cn4c3)c2n1 [Compound 296]	0.1 to 1 µM
1 to 10 µM	> 10 µM	Cc1cn2cc(NC(=O)c3ccc(N4C[C@@H](C)N[C@@H](C)C4)c4cccnc34)cc(F)c2n1 [Compound 340]	1 to 10 µM
0.1 to 1 µM	0.1 to 1 µM	Cc1cn2nc(NC(=O)c3ccc(N4C[C@@H](C)N[C@@H](C)C4)c4nccnc34)cc2c(C)n1 [Compound 354]	0.1 to 1 µM
1 to 10 µM	1 to 10 µM	Cc1cn2cc(NC(=O)c3ccc(N4CCN[C@@H](CF)C4)c4nccnc34)cc(F)c2n1 [Compound 367]	1 to 10 µM
> 10 µM	> 10 µM	COc1cn2cc(NC(=O)c3ccc(N4C[C@@H](C)N[C@@H](C)C4)c4nccnc34)cc(F)c2n1 [Compound 357]	> 10 µM
> 10 µM	> 10 µM	Cc1cn2cc(NC(=O)c3ccc(N4C[C@@H](C)N[C@@H](C)C4)c4ncc(O)nc34)cc(F)c2n1 [Compound 275]	> 10 µM
0.1 to 1 µM	1 to 10 µM	COc1nc(NC(=O)c2ccc(N3C[C@@H](C)N[C@@H](C)C3)c3nccnc23)cn2cc(C)nc12 [Compound 277]	1 to 10 µM
1 to 10 µM	1 to 10 µM	Cc1cn2cc(NC(=O)c3ccc(N4CCNCC4)c4nccnc34)cc(F)c2n1 [Compound 111]	1 to 10 µM
1 to 10 µM	1 to 10 µM	Cc1cn2cc(NC(=O)c3ccc(N4CCNC(C)(CO)C4)c4nccnc34)cc(F)c2n1 (stereo not drawn) [Compound 368]	1 to 10 µM
> 10 µM	1 to 10 µM	C[C@@H]1CN(c2ccc(C(=O)Nc3cc(F)c4nc(Cl)cn4c3)c3nccnc23)C[C@H](C)N1 [Compound 306]	> 10 µM
1 to 10 µM	1 to 10 µM	Cc1cn2cc(NC(=O)c3ccc(N4CCN5CCOC[C@H]5C4)c4nccnc34)cc(F)c2n1 [Compound 256, (R)—N-(8-fluoro-2-methylimidazo[1,2-a]pyridin-6-yl)-8-(hexahydropyrazino[2,1-c][1,4]oxazin-8(1H)-yl)quinoxaline-5-carboxamide]	1 to 10 µM
1 to 10 µM	1 to 10 µM	Cc1cn2c(C)c(NC(=O)c3ccc(N4C[C@@H](C)N[C@@H](C)C4)c4nccnc34)cc(F)c2n1 [Compound 285]	1 to 10 µM
0.1 to 1 µM	0.1 to 1 µM	Cc1cn2cc(NC(=O)c3ccc(N4CCN5CCOC[C@@H]5C4)c4nccnc34)cc(F)c2n1 [Compound 255, (S)—N-(8-fluoro-2-methylimidazo[1,2-a]pyridin-6-yl)-8-(hexahydropyrazino[2,1-c][1,4]oxazin-8(1H)-yl)quinoxaline-5-carboxamide]	0.1 to 1 µM
> 10 µM	> 10 µM	Cc1cn2cc(NC(=O)c3ccc(N4CCNCC4)c4ccnnc34)ncc2n1 [Compound 120]	> 10 µM
> 10 µM	> 10 µM	Cn1cc2ccc(NC(=O)c3ccc(N4CCNCC4)c4ccnnc34)cc2n1 [Compound 115]	> 10 µM
1 to 10 µM	> 10 µM	Cc1cn2cc(NC(=O)c3ccc(N4C[C@@H](C)N[C@@H](C)C4)c4ncc(OC5CC5)nc34)cc(F)c2n1 [Compound 351]	> 10 µM

IC50 (HTT mRNA)	IC50 (Target C)	Structure (SMILES)	AC50 (HTT mRNA)
0.1 to 1 µM	0.1 to 1 µM	COc1cc2c(N3C[C@@H](C)N[C@@H](C)C3)ccc(C(=O)Nc3cc(F)c4nc(C)cn4c3)c2nn1 [Compound 273, 5-[(3R,5S)-3,5-dimethylpiperazin-1-yl]-N-{8-fluoro-2-methylimidazo[1,2-a]pyridin-6-yl}-3-methoxycinnoline-8-carboxamide]	0.1 to 1 µM
1 to 10 µM	1 to 10 µM	Cc1cn2cc(NC(=O)c3ccc(N4C[C@@H](C)N[C@@H](C)C4)c4cncnc34)cc(F)c2n1 [Compound 302]	1 to 10 µM
1 to 10 µM	1 to 10 µM	Cc1cn2cc(NC(=O)c3ccc(N4CCN[C@H](CF)C4)c4nccnc34)cc(F)c2n1 [Compound 366]	1 to 10 µM
1 to 10 µM	1 to 10 µM	Cc1cn2cc(NC(=O)c3ccc(N4C[C@@H](C)N[C@H](C)C4)c4nccnc34)cc(F)c2n1 [Compound 312]	1 to 10 µM
1 to 10 µM	1 to 10 µM	Cc1cn2cc(NC(=O)c3ccc(N4CCNC5(CCC5)C4)c4nccnc34)cc(F)c2n1 [Compound 363]	1 to 10 µM
> 10 µM	> 10 µM	C[C@@H]1CN(c2ccc(C(=O)Nc3cc(F)c4ncccc4c3)c3nccnc23)C[C@H](C)N1 [Compound 344]	> 10 µM
1 to 10 µM	1 to 10 µM	Cc1cn2cc(NC(=O)c3ccc(N4CCN[C@H](CO)C4)c4nccnc34)cc(F)c2n1 [Compound 362]	1 to 10 µM
> 10 µM	> 10 µM	Cc1cn2cc(NC(=O)c3ccc(N4CC[C@@H](N(C)C)C4)c4nccnc34)cc(F)c2n1 [Compound 242, 8-[(3R)-3-(dimethylamino)pyrrolidin-1-yl]-N-{8-fluoro-2-methylimidazo[1,2-a]pyridin-6-yl}quinoxaline-5-carboxamide]	> 10 µM
> 10 µM	> 10 µM	Cc1cn2cc(NC(=O)c3ccc(N4C[C@@H](C5CC5)N[C@@H](C)C4)c4nccnc34)cc(F)c2n1 [Compound 267, 8-((3R,5S)-3-cyclopropyl-5-methylpiperazin-1-yl)-N-(8-fluoro-2-methylimidazo[1,2-a]pyridin-6-yl)quinoxaline-5-carboxamide]	> 10 µM
1 to 10 µM	1 to 10 µM	COc1nc(NC(=O)c2ccc(N3C[C@@H](C)N[C@@H](C)C3)c3nccnc23)cc2cn(C)nc12 [Compound 352]	1 to 10 µM
1 to 10 µM	1 to 10 µM	Cc1cn2cc(NC(=O)c3ccc(N4CCC5(CCN5)C4)c4nccnc34)cc(F)c2n1 (stereo not drawn) [Compound 339]	1 to 10 µM
> 10 µM	1 to 10 µM	COc1nc(NC(=O)c2ccc(N3C[C@@H](C)N[C@@H](C)C3)c3nccnc23)cc2oc(C)nc12 [Compound 298]	> 10 µM
> 10 µM	1 to 10 µM	Cc1cn2cc(NC(=O)c3ccc(N4C[C@@H](C)N[C@@H](C)C4)c4ncc(Cl)nc34)cc(F)c2n1 [Compound 281]	> 10 µM
> 10 µM	1 to 10 µM	Cc1cn2cc(NC(=O)c3ccc(N4CC[C@@H](N)C4)c4nccnc34)cc(F)c2n1 [Compound 315]	1 to 10 µM
1 to 10 µM	1 to 10 µM	Cc1cn2cc(NC(=O)c3ccc(N4CC[C@@H](N)C4)c4ccnnc34)cc(F)c2n1 [Compound 270]	1 to 10 µM
1 to 10 µM	1 to 10 µM	C[C@@H]1CN(c2ccc(C(=O)Nc3cc(F)c4nn(C)cc4c3)c3nccnc23)C[C@@H](C)N1 [Compound 335]	> 10 µM
1 to 10 µM	1 to 10 µM	Cc1cn2cc(NC(=O)c3ccc([C@H]4CCNC4)c4nccnc34)cc(F)c2n1 [Compound 246]	1 to 10 µM
0.1 to 1 µM	1 to 10 µM	Cc1cn2cc(NC(=O)c3ccc(N4CCC(NC5CC5)CC4)c4ccnnc34)cc(F)c2n1 [Compound 259, 5-[4-(cyclopropylamino)piperidin-1-yl]-N-{8-fluoro-2-methylimidazo[1,2-a]pyridin-6-yl} cinnoline-8-carboxamide]	0.1 to 1 µM

Structure (SMILES)	IC50 (HTT mRNA)	IC50 (Target C)	AC50 (HTT mRNA)
Cc1cn2cc(NC(=O)c3ccc(C4=CCNCC4)c4nccnc34)cc(F)c2n1 [Compound 240, N-{8-fluoro-2-methylimidazo[1,2-a]pyridin-6-yl}-8-(1,2,3,6-tetrahydropyridin-4-yl)quinoxaline-5-carboxamide]	< 0.1 µM	0.1 to 1 µM	0.1 to 1 µM
